“Also recorded” adds a separate entry of the source.
Tests used:
Format in all cases: cell-based
HIV-1 NL4-3 = HIV-1 NL4-3 single-round infection assay in TZM-bl cells; details: 200 TCID50, 2 days, luciferase, average of 3 independent experiments, Inactive = TC50/IC50 < 2
HIV-2 KR.X3 = HIV-2 KR.X3 single-round infection assay in TZM-bl cells; details: for IC50 (µM) HIV-2 KR.X3: TZM-bl cells, 200 TCID50, 2 days, luciferase, average of 3 independent experiments, Inactive = TC50/IC50 < 2; for reduction of anti-HIV-2 activity after glycine addition compared to precursor: 13 versus 8, 14 versus 9
HIV-2 KR.X3-YU-2/V3 = HIV-2 KR.X3-YU-2/V3 chimeric virus infection assay in TZM-bl cells; details: chimeric virus with V3 loop of HIV-1 YU-2; Figure 1, 4 independent experiments

Structure (SMILES) | IC50 (µM) HIV-1 NL4-3 (HIV-1 NL4-3) | IC50 (µM) HIV-2 KR.X3 (HIV-2 KR.X3) | further results
C=C(C)[C@@H]1CC[C@]2(C(=O)O)CC[C@]3(C)[C@H](CC[C@@H]4[C@@]5(C)CC[C@H](O)C(C)(C)[C@@H]5CC[C@]43C)[C@@H]12 [Compound 1, Betulinic acid, reference compound] | did not exhibit anti-HIV-1 or anti-HIV-2 activity; also recorded: Inactive | did not exhibit anti-HIV-1 or anti-HIV-2 activity; also recorded: Inactive | 
C=C(C)[C@@H]1CC[C@]2(C(=O)NCCCCCNC(C)=O)CC[C@]3(C)[C@H](CC[C@@H]4[C@@]5(C)CC[C@H](O)C(C)(C)[C@@H]5CC[C@]43C)[C@@H]12 [Compound 2] | Inactive | Inactive | 
C=C(C)[C@@H]1CC[C@]2(C(=O)NCCCCCCNC(C)=O)CC[C@]3(C)[C@H](CC[C@@H]4[C@@]5(C)CC[C@H](O)C(C)(C)[C@@H]5CC[C@]43C)[C@@H]12 [Compound 3] |  | completely inactive | 
C=C(C)[C@@H]1CC[C@]2(C(=O)NCCCCCCCNC(C)=O)CC[C@]3(C)[C@H](CC[C@@H]4[C@@]5(C)CC[C@H](O)C(C)(C)[C@@H]5CC[C@]43C)[C@@H]12 [Compound 4, [[N-[3β-hydroxyl-lup-20(29)-en-28-oyl]-7-aminoheptyl]-carbamoyl]methane] |  | Inactive | 
C=C(C)[C@@H]1CC[C@]2(C(=O)NCCCCCCCCNC(C)=O)CC[C@]3(C)[C@H](CC[C@@H]4[C@@]5(C)CC[C@H](O)C(C)(C)[C@@H]5CC[C@]43C)[C@@H]12 [Compound 5] |  | Inactive | 
C=C(C)[C@@H]1CC[C@]2(C(=O)NCCCCCCNC(=O)CC(=O)O)CC[C@]3(C)[C@H](CC[C@@H]4[C@@]5(C)CC[C@H](O)C(C)(C)[C@@H]5CC[C@]43C)[C@@H]12 [Compound 6] |  | Inactive | 
C=C(C)[C@@H]1CC[C@]2(C(=O)NCCCC(=O)O)CC[C@]3(C)[C@H](CC[C@@H]4[C@@]5(C)CC[C@H](O)C(C)(C)[C@@H]5CC[C@]43C)[C@@H]12 [Compound 7] | Inactive |  | 
C=C(C)[C@@H]1CC[C@]2(C(=O)NCCCCCCCC(=O)O)CC[C@]3(C)[C@H](CC[C@@H]4[C@@]5(C)CC[C@H](O)C(C)(C)[C@@H]5CC[C@]43C)[C@@H]12 [Compound 11] |  | Inactive | 
C=C(C)[C@@H]1CC[C@]2(C(=O)NCCCC(=O)NCC(=O)O)CC[C@]3(C)[C@H](CC[C@@H]4[C@@]5(C)CC[C@H](O)C(C)(C)[C@@H]5CC[C@]43C)[C@@H]12 [Compound 12] | Inactive |  | 
C=C(C)[C@@H]1CC[C@]2(C(=O)NCCCCC(=O)NCC(=O)O)CC[C@]3(C)[C@H](CC[C@@H]4[C@@]5(C)CC[C@H](O)C(C)(C)[C@@H]5CC[C@]43C)[C@@H]12 [Compound 13] | Inactive |  | reduction of anti-HIV-2 activity after glycine addition compared to precursor (HIV-2 KR.X3): approximately 15 fold
C=C(C)[C@@H]1CC[C@]2(C(=O)NCCCCCC(=O)NCC(=O)O)CC[C@]3(C)[C@H](CC[C@@H]4[C@@]5(C)CC[C@H](O)C(C)(C)[C@@H]5CC[C@]43C)[C@@H]12 [Compound 14] |  |  | HIV-2 KR.X3-YU-2/V3 less sensitive compared to HIV-2 KR.X3 (HIV-2 KR.X3-YU-2/V3): approximately 5 fold; reduction of anti-HIV-2 activity after glycine addition compared to precursor (HIV-2 KR.X3): approximately 2 fold
C=C(C)[C@@H]1CC[C@]2(C(=O)NCCCCCCCC(=O)N[C@@H](CC(C)C)[C@H](O)CC(=O)O)CC[C@]3(C)[C@H](CC[C@@H]4[C@@]5(C)CC[C@H](O)C(C)(C)[C@@H]5CC[C@]43C)[C@@H]12 [Compound 17, reference compound] |  |  | anti-HIV-2 activity less potent than its anti-HIV-1 activity (HIV-2 KR.X3; HIV-2 KR.X3 versus HIV-1 NL4-3): about 70 times
C=C(C)[C@@H]1CC[C@]2(C(=O)NCCCCCC(=O)N[C@@H](Cc3ccc(O)cc3)C(=O)O)CC[C@]3(C)[C@H](CC[C@@H]4[C@@]5(C)CC[C@H](O)C(C)(C)[C@@H]5CC[C@]43C)[C@@H]12 [Compound 19] | Inactive |  | 
C=C(C)[C@@H]1CC[C@]2(C(=O)NCCCCCC(=O)NCC(=O)NCC(=O)O)CC[C@]3(C)[C@H](CC[C@@H]4[C@@]5(C)CC[C@H](O)C(C)(C)[C@@H]5CC[C@]43C)[C@@H]12 [Compound 21] |  |  | less potent against HIV-2 than 9 (HIV-2 KR.X3): approximately 10 fold
C=C(C)[C@@H]1CC[C@]2(C(=O)O)CC[C@]3(C)[C@H](CC[C@@H]4[C@@]5(C)CC[C@H](OC(=O)CC(C)(C)C(=O)O)C(C)(C)[C@@H]5CC[C@]43C)[C@@H]12 [Compound 22, 3-O-(3’,3’-dimethylsuccinyl)-betulinic acid, reference compound] |  | did not inhibit HIV-2 replication; also recorded: Inactive | 

Reference: publication PMC2788670 (Journal of medicinal chemistry, 2009)
